What was measured:
[1] = tested on: Sphaerotheca fuliginea; experiment: In vivo preventive test on Sphaerotheca fuliginea (cucumber); settings: 500 ppm of active ingredient, evaluated 7 days after inoculation
Experimental: (§1) Solvent: 49 parts by weight of N,N-dimethylformamide Emulsifier: 1 part by weight of Alkylarylpolyglycolether To produce a suitable preparation of active compound, 1 part by weight of active compound is mixed with the stated amounts of solvent and emulsifier, and the concentrate is diluted with water to the desired concentration. To test for preventive activity, young plants are sprayed with the preparation of active compound at the stated rate of application. One day after this treatment, the plants are inoculated with an aqueous spore suspension of Sphaerotheca fuliginea. Then the plants are placed in a greenhouse at approximately 23° C. and a relative atmospheric humidity of approximately 70%.

[2] = tested on: Alternaria solani; experiment: In vivo preventive test on Alternaria solani (tomato); settings: 500 ppm of active ingredient, evaluated 7 days after inoculation
Experimental: as §1, with “Alternaria solani.” for “Sphaerotheca fuliginea. Then the plants are placed in a greenhouse at approximately 23° C. and a relative atmospheric humidity of approximately 70%.”

[3] = tested on: Pyrenophora teres; experiment: In vivo preventive test on Pyrenophora teres (barley); settings: 500 ppm of active ingredient, evaluated 7-9 days after inoculation
Summary of the method: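 Preventive test: young barley plants received a water-diluted spray of compound formulated with DMF solvent plus alkylaryl polyglycol ether emulsifier, at the stated rate. Inoculation with an aqueous spore suspension of Pyrenophora teres followed one day after spraying.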

[4] = tested on: aflatoxines produced by Aspergillus parasiticus; experiment: microbe, parasite or virus in culture; assay type: cell-based
[5] = tested on: Aspergillus parasiticus; experiment: microbe, parasite or virus in culture; assay type: cell-based
[6] = log P by HPLC on reversed-phase column (EEC Directive 79/831 Annex V.A8); assay type: physicochemical
Experimental: In table 1, the log P values were determined in accordance with EEC Directive 79/831 Annex V.A8 by HPLC (High Performance Liquid Chromatography) on a reversed-phase column (C18), using the method described below: Temperature: 40° C.; […]

[7] = tested on: Puccinia triticina; experiment: In vivo preventive test on Puccinia triticina (wheat); settings: 500 ppm of active ingredient, evaluated 8 days after inoculation; for pest or weed control at 500 ppm: Puccinia triticina, 192 h, read-out: Efficacy

SMILES	Efficacy [1]	Efficacy [2]	Efficacy [3]	% Inhibition of Aflatoxin at 50 μM [4]	% Inhibition of fungal growth at 50 μM [5]	logP [6]	pest or weed control at 500 ppm [7]	Efficacy ([7]; listed as example E-13 disclosed in patent application WO-2008/101976)	Efficacy ([7]; Table K)
CC(CCc1ccccc1Cl)NC(=O)c1c(C(F)F)nn(C)c1F (racemic) [Example 144]	90%	100%	100%	100%	94%	3.21	–	–	–
Cc1cccc(C)c1CC(C)CNC(=O)c1c(C(F)F)nn(C)c1F (racemic) [Example 150]	83%	80%	100%	100%	82%	3.44	–	–	–
CC(COc1ccc(Cl)cc1Cl)N(C(=O)c1cn(C)nc1C(F)F)C1CC1 (stereo not drawn) [18 from WO-2010/012795, N-cyclopropyl-N-[1-(2,4-dichlorophenoxy)propan-2-yl]-3-(difluoromethyl)-1-methyl-1H-pyrazole-4-carboxamide, reference compound]	–	–	–	–	–	–	< 30%	–	–
Cc1nn(C)c(F)c1C(=O)N(C(C)CCc1ccc(Cl)c(Cl)c1)C1CC1 (stereo not drawn) [E-13 from WO-2008/101976, N-cyclopropyl-N-[4-(3,4-dichlorophenyl)butan-2-yl]-5-fluoro-1,3-dimethyl-1H-pyrazole-4-carboxamide, reference compound]	–	–	–	–	–	–	0%	no protection	–
CC(CCc1ccc(C(F)(F)F)cc1)NC(=O)c1c(C(F)F)nn(C)c1Cl (stereo not drawn) [Example 70]	75%	95%	100%	97%	78%	3.63	–	–	–
CC(CCc1ccc(C(F)(F)F)cc1)NC(=O)c1c(C(F)F)nn(C)c1F (stereo not drawn) [Example 71]	95%	95%	100%	100%	83%	3.46	–	–	–
CCC(CCc1sccc1Br)NC(=O)c1c(C(F)F)nn(C)c1F (stereo not drawn) [Example 89]	88%	80%	100%	100%	89%	3.46	–	–	–
Cc1cccc(C)c1OCC(C)N(C(=O)c1c(C(F)F)nn(C)c1F)C1CC1 (stereo not drawn) [Example 155]	–	–	100%	100%	100%	3.94	–	–	90%
CN(CCCc1cc(Cl)ccc1Cl)C(=O)c1c(C(F)F)nn(C)c1F [Example 166]	–	100%	100%	100%	88%	3.48	–	–	78%
CN(CCCc1cc(Cl)ccc1Cl)C(=O)c1c(C(F)F)nn(C)c1Cl [Example 167]	–	100%	80%	–	–	3.62	–	–	70%
CC(CCc1cc(Cl)ccc1Cl)NC(=O)c1c(C(F)F)nn(C)c1F (stereo not drawn) [Example 172]	93%	100%	100%	100%	100%	3.68	–	–	–
CC(N(C(=O)c1c(C(F)F)nn(C)c1Cl)C1CC1)C(C)(C)Cc1ccc(Cl)cc1Cl (stereo not drawn) [Example 182]	75%	95%	100%	100%	90%	5.39	–	–	–
CC(CCc1ccc(Cl)cc1Cl)N(C(=O)c1c(C(F)F)nn(C)c1Cl)C1CC1 (stereo not drawn) [Example 183]	–	95%	100%	82%	79%	4.72	–	–	–
CC(COc1ccc(Cl)cc1Cl)NC(=O)c1c(C(F)F)nn(C)c1F (stereo not drawn) [Example 189]	–	90%	100%	100%	94%	3.58	–	–	–
CC(COc1ccc(Cl)cc1Cl)NC(=O)c1c(C(F)F)nn(C)c1Cl (stereo not drawn) [Example 190]	–	90%	95%	88%	77%	3.76	–	–	–

From patent US8999956B2, “N-[(het)arylalkyl)] pyrazole(thio)carboxamides and their heterosubstituted analogues” (Bayer Intellectual Property GmbH, priority 2010, dated 2015)
